# Measurements published in US20080275111A1, “Novel Use of Lignan Compounds” (priority 2005, published 2008).
# Key:
# [1] = test system: cell line HT-22; experiment: Cytotoxicity in cell line HT-22; type: cell-based; conditions: HT-22, 1, 5 and 10 μM, 24 hours, stated for 10 μM
# Experimental: In order to examine the cytotoxicity effect of macelignan itself, a cell line HT-22 derived from the hippocampus was treated with macelignan at concentrations (1, 5 and 10 μM) for 24 hours.
# [2] = test system: TNF-α; experiment: TNF-α production in LPS-activated microglia (ELISA); type: cell-based, rat; conditions: 1 μg/ml LPS, compound 2.5 and 10 μM, 24 hours
# Description: (§1) When the microglia is activated by LPS, it synthesizes and secretes various pro-inflammatory cytokines such as IL-1, IL-6 and TNF-α (Chen, S. Neurobiol. Aging, 17:781-787, 1996). Therefore, in order to examine the anti-inflammatory effect of the lignan compound of the present invention, the effect of the lignan compound of the present invention on the production of IL-6 and TNF-α in the activated microglia. First, only the neocortex was isolated from the brain of 1 day-old rat. Then, a microglia-astroglia mixture was prepared according to a method known in the art (Kim, H. Y. et al., J. Immunol., 171:6072-6079, 2003). […] Then, the amount of IL-6 and TNF-α secreted into the cell cultured medium was measured with the solid-phase ELISA system (RPN2742 for IL-6, RPN2744 for TNF-α, Amersham Bioscience). For this analysis, 50 μl of the supernatant of the cultured medium of microglia and 50 μl of the standard of each material (purely isolated and quantified IL-6 or TNF-α) were added into a 96-well plate coated with an antibody specific to mouse IL-6 and TNF-α. […] Then, 100 μl of a stop solution (Amersham Bioscience) was added into each well to stop the reaction, and the absorbance of the solution in each well was measured with a microreader at 450 nm. […]
# [3] = test system: IL-6; experiment: IL-6 production in LPS-activated microglia (ELISA); type: cell-based, rat; conditions: 1 μg/ml LPS, compound 2.5 and 10 μM, 24 hours
# Description: as §1
# [4] = test system: COX-2; experiment: COX-2 expression in LPS-activated microglia (Western blotting); type: cell-based, mouse; conditions: 1 μg/ml LPS, compound 2.5 and 10 μM, 16 or 24 hours
# Description: In Example <6-2>, it was observed that the NO production induced by LPS in the tissue-cultured microglia of mouse was inhibited by the lignan compound of the present invention. NO is produced by iNOS enzyme of which expression is induced by activation of microglia. Therefore, the correlation between the reduction of NO production and inhibition of iNOS expression was examined. Additionally, a change in the amount of a protein COX-2 participating in the production of other inflammation-mediating materials was examined. For Western blotting analysis, tissue-cultured microglia was cultured in a 60 mm cell culture dish up to a concentration of 7.5×10^5 cells/ml. After 1 day of cultivation, the activation of microglia was induced by 1 μg/ml of LPS (Sigma) treatment. Simultaneously, the microglia was also treated with 2.5 and 10 μM of the lignan compound of the present invention together with LPS, and incubated for 16 or 24 hours. The incubated cell was washed with cold PBS 2 times, and then dissolved in a cold lysis buffer (1% SDS, 1 mM Na3VO4, 10 mM NaF, 10 mM Tris-Cl, pH 7.4 containing 1× protease inhibitors cocktail). […] Then, the amount of proteins was quantified according to BCA method. […]
# NaCl containing 0.1% Tween 20) 3 times. […] Again, the membrane was then washed with TBS-T solution 3 times, and each band on the membrane was analyzed using ECL system (Sigma).
# [5] = test system: cell line HT-22; experiment: Reactive oxygen species production in cell line HT-22 (CM-H2DCFDA); type: cell-based; conditions: 5 μM compound, 8 hours
# Experimental: A cell line HT-22 (obtained from Dr. David Schubert) derived from the hippocampus playing a part in memory of the brain was treated with 5 mM of glutamate and 5 μM of the lignan compound of the present invention simultaneously for 8 hours. As a control, the cell line HT-22 was not treated with the lignan compound of the present invention. The treated cell line HT-22 was then treated with CM-H2DCFDA (chloromethyl derivative of dichlorodihydrofluorescein diacetate, Molecular Probes) to analyze the production of reactive oxygen species.
# [6] = test system: lipid peroxidation of the brain tissue; experiment: Lipid peroxidation of brain homogenate supernatant induced by hydrogen peroxide; type: biochemical, rat
# Experimental: After anesthesia of a rat, the tissue of the rat was perfused with 0.9% physiological saline solution containing EDTA. The brain was then extracted from the rat and washed with ice-cold 20 mM Tris-HCl (pH 7.4). After removing water, the weight of the brain was measured. The brain was mixed with 0.1 g/ml of ice-cold 20 mM Tris-HCl (pH 7.4) and homogenized. The homogenized brain was centrifuged and the supernatant was collected. 40 μl of the supernatant was mixed with 40 mM of hydrogen peroxide to induce lipid peroxidation. Simultaneously, different concentration (0.5, 1, 5 and 10 μM) of the lignan compounds isolated from the Example 1 were added into the supernatant, respectively. After incubation of the supernatant in water (37° C.) for 30-60 minutes, 162.5 μl of R1 solution (lipid peroxidation assay kit, Cat. No. 437634, Calbiochem) and 37.5 μl of R2 solution (lipid peroxidation assay kit, Cat. No. 437634, Calbiochem) were added into the cultured supernatant, and the supernatant was further incubated at 45° C. for 40 minutes. Then, the absorbance of the incubated medium was measured at 586 nm to quantify the lipid peroxidation.
structure (smiles),measurement,setting,value
"COc1cc(C[C@H](C)[C@H](C)Cc2ccc3c(c2)OCO3)ccc1O [macelignan, (8R,8′S)-7-(3,4-methylenedioxyphenyl)-7′-(4-hydroxy-3-methoxyphenyl)-8,8′-dimethylbutane]",cytotoxicity,[1],did not induce cytotoxicity
same,cytotoxicity,[1]; listed as lignan compound of the present invention,did not show cytotoxicity
same,production of TNF-α induced by LPS,[2],dose-dependently inhibited
same,production of IL-6 induced by LPS,[3],dose-dependently inhibited
same,expression of COX-2 induced by LPS,[4],inhibited in a concentration dependent manner
same,production of reactive oxygen species induced by glutamate,"[5]; HT-22, 5 mM glutamate",inhibited
same,production of reactive oxygen species occurred naturally in a cell,[5]; HT-22 not treated with glutamate,significantly inhibited
same,lipid peroxidation induced by hydrogen peroxide at 10 μM,"[6]; 10 μM compound, compared with control without hydrogen peroxide",in the similar level as the control
same,lipid peroxidation induced by hydrogen peroxide,"[6]; rat brain supernatant, 40 mM hydrogen peroxide, compound 0.5, 1, 5 and 10 μM",dose-dependently inhibited
